The results in this text go back to ChEMBL document CHEMBL1156093, “Synthesis and biological activity of dialkylphosphocholines” (Bioorg Med Chem Lett, 2009).

For test [1], the system named is HFL1. As to the kind of experiment: Cytotoxicity against human HFL1 cells. Format: cell-based.
In test [2] the test system is Candida albicans. As to the kind of experiment: Antifungal activity against Candida albicans. The test is classed as functional.
Test [3] has as its system HeLa. As to the kind of experiment: Cytotoxicity against human HeLa cells. Format: functional, cell-based.
Test [4] concerns Acanthamoeba lugdunensis. As to the kind of experiment: Antiprotozoal activity against Acanthamoeba lugdunensis. Format: functional.

In brackets after ≈: the same amount, converted by molar mass.

Regarding `CCCCCCCCCCCCOP(=O)([O-])OCC[N+](C)(C)CCCCCCCCCC`, the IC50 in test [1] worked out at 58.8 µM; in test [3], 131 µM. This compound also had an MFC in test [2] of 9.7 µM (≈ 4.63 µg/mL). In test [4], this compound displayed an MTC of over 400 µM.
In test [2], `CCCCCCCCCCCCCCOP(=O)([O-])OCC[N+](C)(C)CCCCCCCC` displayed an MFC of 19.3 µM (≈ 9.22 µg/mL). For the same compound, in test [4], the MTC was over 400 µM.
On the same counts, the results for `CCCCCCCCCCCC[N+](C)(C)CCCCCCOP(=O)([O-])OCCCCCCCCCC` are 34.8 µM (≈ 18.6 µg/mL) and over 400 µM.
In the case of `CCCCCCCCCCCC[N+](C)(C)CCCCOP(=O)([O-])OCCCCCCCCCC`, the IC50 in test [1] worked out at 94.6 µM; in test [3], 148 µM. The MFC in test [2] is 18.6 µM (≈ 9.41 µg/mL). Besides, the MTC in test [4] is 200 µM.
In test [2], `CCCCCCCCCCOP(=O)([O-])OCC[N+](C)(C)CCCCCCCCCC` gave an MFC of 20.5 µM (≈ 9.22 µg/mL). In addition, the MTC in test [4] was determined as 25 µM.
On the same counts, the results for `CCCCCCCCCCCCCCCCCCCC[N+](C)(C)CCOP(=O)([O-])OCC` are 1240 µM (≈ 592 µg/mL) and over 400 µM.
On the same counts, the results for `CCCCCCCCCCCCCC[N+](C)(C)CCOP(=O)([O-])OCCCCCCCC` are 9.7 µM (≈ 4.63 µg/mL) and over 400 µM.
For the compound `CCCCCCCCCCCC[N+](C)(C)CCCOP(=O)([O-])OCCCCCCCCCC`, the IC50 is 57.7 µM in test [1] and 112 µM in test [3]. The MFC in test [2] is 9.4 µM (≈ 4.62 µg/mL). In addition, in test [4], the MTC was determined as 100 µM.
The corresponding values for `CCCCCCCCCCCCCCCC[N+](C)(C)CCOP(=O)([O-])OCCCCCC` are 110 µM, 170 µM, 19.3 µM (≈ 9.22 µg/mL) and over 400 µM.
With `CCCCCCCCCCCCCCCCCCCCOP(=O)([O-])OCC[N+](C)(C)CC`, the figures for the IC50 in test [1] and in test [3] were 27.2 µM and 20.3 µM, respectively. Also, the MFC in test [2] was determined as 619 µM (≈ 296 µg/mL). Also, the MTC in test [4] was over 400 µM.
Compound `CCCCCCCCCC[N+](C)(C)CC[N+](C)(C)CCCCCCCCCC.[Br-].[Br-]` had an MFC in test [2] of 17.5 µM. The same compound displayed an MTC in test [4] of 200 µM.
The corresponding values for `CCCCCCCCCCCCCCCCOP(=O)([O-])OCC[N+](C)(C)CCCCCC` are 77.4 µM (≈ 37 µg/mL) and over 400 µM.
In the case of `CCCCCCCCCCCC[N+](C)(C)CCOP(=O)([O-])OCCCCCCCCCC`, the values for the IC50 in test [1] and in test [3] were 43.8 µM and 118 µM, respectively. In addition, in test [2], the MFC worked out at 19.3 µM (≈ 9.22 µg/mL). Also, the MTC in test [4] was over 400 µM.
For `CCCCCCCCCCCCCCCCCCOP(=O)([O-])OCC[N+](C)(C)CCCC`, the IC50 in test [1] turned out to be 113 µM; in test [3], 161 µM. The same compound showed an MFC in test [2] of 19.3 µM (≈ 9.22 µg/mL). This compound displayed an MTC in test [4] of over 400 µM.
`CCCCCCCCCCCC[N+](C)(C)CCCCCCCCCCOP(=O)([O-])OCCCCCCCCCC`: in test [2], the MFC is 8100 µM (≈ 4780 µg/mL). Moreover, in test [4], the MTC is over 400 µM.
The corresponding values for `CCCCCCCCCCCCCCCCCC[N+](C)(C)CCOP(=O)([O-])OCCCC` are 9.7 µM (≈ 4.63 µg/mL) and over 400 µM.
On to `CCCCCCCCCCCCCCCCOP(=O)([O-])OCC[N+](C)(C)C` [MILTEFOSINE], for which the half-inhibitory concentration (IC50) stood at 203 µM in test [1] and 129 µM in test [3]. In addition, in test [2], the MFC was found to be 4 µM (≈ 1.63 µg/mL). This compound also returned an MTC in test [4] of 400 µM.

The term IC50 denotes the concentration at which inhibition is half-maximal. Lower therefore signals greater potency. One may read the MFC as the lowest tested concentration that kills the fungus rather than only halting it. A low value points to greater fungicidal potency.
